# Results reported in patent publication US10000484B2, “Inhibitors of the renal outer medullary potassim channel” (MERCK SHARP & DOHME CORP., priority 2013, dated 2018).
# Biological target: T1, hROMK (hKir1.1) (Homo sapiens, UniProt P48048)
# T1 construct: expressed in transfected cells
# T1 sequence (P48048 1-391): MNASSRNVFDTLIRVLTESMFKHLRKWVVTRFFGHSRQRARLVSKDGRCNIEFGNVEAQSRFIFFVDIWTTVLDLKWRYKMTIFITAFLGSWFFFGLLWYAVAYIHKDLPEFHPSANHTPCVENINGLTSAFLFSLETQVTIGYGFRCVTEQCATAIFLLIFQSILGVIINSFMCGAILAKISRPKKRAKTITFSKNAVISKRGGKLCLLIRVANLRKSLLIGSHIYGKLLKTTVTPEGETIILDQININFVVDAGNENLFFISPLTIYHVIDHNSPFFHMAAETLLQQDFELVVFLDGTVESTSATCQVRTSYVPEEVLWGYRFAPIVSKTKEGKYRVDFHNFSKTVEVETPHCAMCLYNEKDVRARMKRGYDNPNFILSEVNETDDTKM
# Assay: Thallium Flux Assay (ROMK channel functional thallium flux assay, FLIPR-Tetra)
# Assay type: cell-based
# Settings: HEK293 cells stably expressing hROMK; 30 min incubation with compound
# Method: The following Thallium Flux Assay was performed on each of the final product compounds in the Examples. When the final product of an Example was an HCl salt, the salt was run in the Assay.
# HEK293 cells stably expressing hROMK (hKir1.1) were grown at 37° C. in a 10% CO2 humidified incubator in complete growth media: Dulbecco's Modified Eagle Medium supplemented with non-essential amino acids, Penicillin/Streptomycin/Glutamine, G418 and FBS. At >80% confluency, aspirate the media from the flask and rinse with 10 mL Calcium/Magnesium-free PBS. Add 5 mL of 1× trypsin (prepared in Ca/Mg Free PBS) to T-225 flask and return flask to 37° C./CO2 incubator for 2-3 minutes. To dislodge the cell, gently bang the side of the flask with your hand. Triturate the cells completely and then transfer the cells to 25 mL complete media. Centrifuge at 1,500 rpm for 6 min followed by resuspension in complete growth media and determine cell concentration. For typical re-seeding, 4E6 cells/T-225 flask will attain >80% confluency in 4 days. Under ideal growth conditions and appropriate tissue culture practices, this cell line is stable for 40-45 passages.
# FluxOR Kit Components (Invitrogen F10017)
# • FluxOR™ Reagent (Component A) • FluxOR™ Assay Buffer (Component B)—10× Concentrate • PowerLoad™ Concentrate (Component C)—100× Concentrate • Probenecid (Component D)—Lyophilized sample is kept at −20° C. Water soluble, 100× after solubilization in 1 mL water. Store at 4° C. • FluxOR™ Chloride-free Buffer (Component E)—5× Concentrate • Potassium sulfate (K2SO4) Concentrate (Component F)—125 mM in water. Store at 4° C. • Thallium sulfate (Tl2SO4) Concentrate (Component G)—50 mM in water. Store at 4° C. • DMSO (dimethyl sulfoxide, Component H)—1 mL (100%) Reagent Preparation: FluxOR Working Solutions • 1000× FluxOR™ Reagent: Reconstitute a vial of component A in 100 μl DMSO; Mix well; Store 10 μl aliquots at −20° C. • 1× FluxOR™ Assay Buffer: Dilute Component B 10-fold with water; Adjust pH to 7.4 with Hepes/NaOH; Filter and store at 4° C. • Probenecid/Assay Buffer: 100 mL of 1× FluxOR™ Assay Buffer; 1 mL of reconstituted component D; Store at 4° C. • Loading Buffer (per microplate): 10 μl 1000× FluxOR™ Reagent; 100 μl component C; 10 mL Probenecid/Assay Buffer • Compound Buffer (per microplate): 20 mL Probenecid/Assay Buffer; 0.3 mM ouabain (10 mM ouabain in water can be stored in amber bottle/aluminum foil at room temperature); Test compound • 1× FluxOR™ Chloride-Free Buffer: Prepare 1× working solution in water. Can be stored at room temperature • Stimulant Buffer (prepared at 5× final concentration in 1× FluxOR™ Chloride-Free Buffer): 7.5 mM Thallium sulfate and 0.75 mM Potassium sulfate (to give a final assay concentration of 3 mM Thallium/0.3 mM Potassium). Store at 4° C. when not in use. Assay Protocol—
# The ROMK channel functional thallium flux assay is performed in 384 wells, using the FLIPR-Tetra instrument. HEK-hKir1.1 cells are seeded in Poly-D-Lysine microplates and kept in a 37° C.-10% CO2 incubator overnight. On the day of the experiment, the growth media is replaced with the FluxOR™ reagent loading buffer and incubated, protected from light, at ambient temperature (23-25° C.) for 90 min. The loading buffer is replaced with assay buffer±test compound followed by 30 min incubation at ambient temperature, where the Thallium/Potassium stimulant is added to the microplate.
# 1. Seed HEK-hKir1.1 cells (50 μl at 20,000 cells/well) in 384-well PDL coated Microplates
# 2. Allow cells to adhere overnight in humidified 37° C./10% CO2 incubator
# 3. Completely remove cell growth media from microplate and replace with 25 μl loading buffer
# 4. Incubate Microplate at room temperature, protected form light, for 90 min
# 5. Remove loading buffer and replace with 25 μl 1× Assay Buffer±test compound.
# 6. Incubate microplate at room temperature, protected from light, for 30 min
# 7. At FLIPR-Tetra 384: Add stimulant (Thallium/Potassium) solution to microplate and monitor fluorescence. […]
row,IC50,SMILES
1,67 nM,"Cc1c(C(O)CN2CCc3c(cnn3-c3ccc4c(c3)COC4=O)C2)ccc2c1COC2=O (stereo not drawn) [Example 33, 5-{1-hydroxy-2-[1-(1-oxo-1,3-dihydro-2-benzofuran-5-yl)-1,4,6,7-tetrahydro-5H-pyrazolo[4,3-c]pyridin-5-yl]ethyl}-4-methyl-2-benzofuran-1(3H)-one]"
2,99.4 nM,"Cc1c(C(O)CN2CCn3cc(-c4ccc5c(c4)COC5=O)nc3C2)ccc2c1COC2=O (stereo not drawn) [Example 34, 5-{1-hydroxy-2-[2-(1-oxo-1,3-dihydro-2-benzofuran-5-yl)-5,6-dihydroimidazo[1,2-a]pyrazin-7(8H)-yl]ethyl}-4-methyl-2-benzofuran-1(3H)-one]"
3,154 nM,"COc1cc(-c2cn3c(n2)CN(CC(O)c2ccc4c(c2C)COC4=O)CC3)ccc1C#N (stereo not drawn) [Example 35, 4-{7-[2-hydroxy-2-(4-methyl-1-oxo-1,3-dihydro-2-benzofuran-5-yl)ethyl]-5,6,7,8-tetrahydroimidazo[1,2-a]pyrazin-2-yl}-2-methoxybenzonitrile]"
4,291 nM,"Cc1c(C(O)CN2CCn3c(nn(-c4ccc5c(c4)COC5=O)c3=O)C2)ccc2c1COC2=O (stereo not drawn) [Example 37, 7-[2-hydroxy-2-(4-methyl-1-oxo-1,3-dihydro-2-benzofuran-5-yl)ethyl]-2-(1-oxo-1,3-dihydro-2-benzofuran-5-yl)-5,6,7,8-tetrahydro[1,2,4]triazolo[4,3-a]pyrazin-3(2H)-one]"
5,82 nM,"Cc1c(C(O)CN2CCc3nc(-c4ccc(C#N)c(F)c4)ncc3C2)ccc2c1COC2=O (stereo not drawn) [Example 38, 2-fluoro-4-{6-[2-hydroxy-2-(4-methyl-1-oxo-1,3-dihydro-2-benzofuran-5-yl)ethyl]-5,6,7,8-tetrahydropyrido[4,3-d]pyrimidin-2-yl}benzonitrile]"
6,337 nM,"Cc1cc(C#N)ccc1-c1ncc2c(n1)CCN(CC(O)c1ccc3c(c1C)COC3=O)C2 (stereo not drawn) [Example 39, 4-{6-[2-hydroxy-2-(4-methyl-1-oxo-1,3-dihydro-2-benzofuran-5-yl)ethyl]-5,6,7,8-tetrahydropyrido[4,3-d]pyrimidin-2-yl}-3-methylbenzonitrile]"
7,155 nM,"Cc1c(C(O)CN2CCc3nc(-c4ccc(C#N)cn4)ncc3C2)ccc2c1COC2=O (stereo not drawn) [Example 40, 6-{6-[2-hydroxy-2-(4-methyl-1-oxo-1,3-dihydro-2-benzofuran-5-yl)ethyl]-5,6,7,8-tetrahydropyrido[4,3-d]pyrimidin-2-yl}pyridine-3-carbonitrile]"
8,463 nM,"Cc1c(C(O)CN2CCc3nc(-c4ccc(C#N)cc4F)ncc3C2)ccc2c1COC2=O (stereo not drawn) [Example 41, 3-fluoro-4-{6-[2-hydroxy-2-(4-methyl-1-oxo-1,3-dihydro-2-benzofuran-5-yl)ethyl]-5,6,7,8-tetrahydropyrido[4,3-d]pyrimidin-2-yl}benzonitrile]"
9,173 nM,"Cc1c([C@@H](O)CN2CCc3c(-c4ccc(C#N)c(F)c4)n[nH]c3C2)ccc2c1COC2=O [Example 42, 3-(4-cyano-3-fluorophenyl)-6-((R)-2-hydroxy-2-(4-methyl-1-oxo-1,3-dihydroisobenzofuran-5-yl)ethyl)-4,5,6,7-tetrahydro-1H-pyrazolo[3,4-c]pyridine]"
10,592 nM,"Cc1c([C@@H](O)CN2CCc3c(cnn3-c3ccc(C#N)cn3)C2)ccc2c1COC2=O [Example 43, 6-{5-[(2R)-2-hydroxy-2-(4-methyl-1-oxo-1,3-dihydro-2-benzofuran-5-yl)ethyl]-4,5,6,7-tetrahydro-1H-pyrazolo[4,3-c]pyridin-1-yl}pyridine-3-carbonitrile]"
11,301 nM,"Cc1c([C@@H](O)CN2CCn3c(-c4ccc5c(c4)C[C@H](C)OC5=O)cnc3C2)ccc2c1COC2=O [Example 44, (3S)-6-{7-[(2R)-2-hydroxy-2-(4-methyl-1-oxo-1,3-dihydro-2-benzofuran-5-yl)ethyl]-5,6,7,8-tetrahydroimidazo[1,2-a]pyrazin-3-yl}-3-methyl-3,4-dihydro-1H-isochromen-1-one]"
12,131 nM,"Cc1cc(C#N)ccc1C1C[C@H]2CN(C[C@H](O)c3ccc4c(c3C)COC4=O)CCN2C1 (stereo partly drawn) [Example 45, 4-{(8aS)-2-[(2R)-2-hydroxy-2-(4-methyl-1-oxo-1,3-dihydro-2-benzofuran-5-yl)ethyl]octahydropyrrolo[1,2-a]pyrazin-7-yl}-3-methylbenzonitrile]"
13,81.4 nM,"Cc1c([C@@H](O)CN2CCN3CC(c4ccc5c(c4)C[C@@H](C)OC5=O)C[C@H]3C2)ccc2c1COC2=O (stereo partly drawn) [Example 46, (3R)-6-{(8aS)-2-[(2R)-2-hydroxy-2-(4-methyl-1-oxo-1,3-dihydro-2-benzofuran-5-yl)ethyl]octahydropyrrolo[1,2-a]pyrazin-7-yl}-3-methyl-3,4-dihydro-1H-isochromen-1-one]"
14,249 nM,"Cc1c([C@@H](O)CN2CCc3cc(-c4ccc5c(c4)C[C@H](C)OC5=O)ccc3C2)ccc2c1COC2=O [Example 47, 2-[(2R)-2-hydroxy-2-(4-methyl-1-oxo-1,3-dihydro-2-benzofuran-5-yl)ethyl]-6-[(3S)-3-methyl-1-oxo-3,4-dihydro-1H-isochromen-6-yl]-1,2,3,4-tetrahydroisoquinoline]"

row,SMILES,IC50
1,"Cc1c(C(O)CN2CCn3c(nn(-c4ccc(C#N)c(F)c4)c3=O)C2)ccc2c1COC2=O (stereo not drawn) [Example 36, 2-fluoro-4-{7-[2-hydroxy-2-(4-methyl-1-oxo-1,3-dihydro-2-benzofuran-5-yl)ethyl]-3-oxo-5,6,7,8-tetrahydro[1,2,4]triazolo[4,3-a]pyrazin-2(3H)-yl}benzonitrile]",163 nM

# Biological target: T2, ROMK (Kir1.1) (Homo sapiens, UniProt P48048)
# T2 sequence (P48048 1-391): T1 sequence (P48048 1-391)
# Assay: 86Rb+ Efflux Assay, described in WO2013/062892 at pages 79-80
# Assay type: cell-based
# Settings: values marked "(Rb)" in Table 10
# From the text: The data for Examples 2, 3, 4, 8, 9, 10, 15 and 32 were obtained using the ^86Rb^+ Efflux Assay, described in WO2013/062892 at pages 79-80.
row,IC50,SMILES
1,306 nM,"N#Cc1ccc(-c2ncc3c(n2)CCN(CCc2ccc4c(c2)COC4=O)C3)cc1 [Example 2, 4-{6-[2-(1-oxo-1,3-dihydro-2-benzofuran-5-yl)ethyl]-5,6,7,8-tetrahydropyrido[4,3-d]pyrimidin-2-yl}benzonitrile]"
2,501 nM,"N#Cc1ccc(-n2ncc3c2CCN(CCc2ccc4c(c2)COC4=O)C3)cc1 [Example 3, 4-{5-[2-(1-oxo-1,3-dihydro-2-benzofuran-5-yl)ethyl]-4,5,6,7-tetrahydro-1H-pyrazolo[4,3-c]pyridin-1-yl}benzonitrile]"
3,304 nM,"Cc1c(CCN2CCc3nc(-c4ccc(C#N)cc4)ncc3C2)ccc2c1COC2=O [Example 4, 4-{6-[2-(4-methyl-1-oxo-1,3-dihydro-2-benzofuran-5-yl)ethyl]-5,6,7,8-tetrahydropyrido[4,3-d]pyrimidin-2-yl}benzonitrile]"
